According to patent publication US20180280485A1, “THIORETINAMIDE COMPOSITIONS FOR THE APOPTOSIS OF MALIGNANT CELLS WHILE PREVENTING THE APOPTOSIS OF NORMAL CELLS AND RELATED METHODS” (priority 2017, published 2018):

Assays:
[1] = system: human adenocarcinoma cells; assay: Growth of cultured human adenocarcinoma cells (Example 7); format: cell-based; conditions: for cell growth (10^5): cell number day 4, 10^5 cells passaged day 0, no addition 7.4 ± 2.7; for cell growth (10^5) / cell growth (% of control): TR2Co/TR 30 mg/dL, DATS/NBS 1.0 mg/dL; for cell growth (% of control): day 4; for inhibition of growth of cultured human adenocarcinoma cells: each compound alone, Table 2
Experimental: Human adenocarcinoma cells were cultured in RPMI medium with added fetal bovine serum and antibiotics, as reported by McCully K S et al in Research Communications in Chemical Pathology and Pharmacology, 1992; 77: 125-128 and reviewed by Ariga T et al in Biofactors 2006; 26: 93-103. Equal numbers (10^5) of adenocarcinoma cells were trypsinized and passaged on day 0, and the cells were refed with media containing test compounds on days 1 and 3. Cell numbers were determined by trypsinization on day 4. Thioretinaco (TR2Co) and thioretinamide (TR) were synthesized, as previously described (McCully U.S. Pat. No. 4,618,685; McCully U.S. Pat. No. 4,925,931) and dissolved in absolute ethanol. Authentic diallyl trisulfide ([…]) and napabucasin (NBS) were solubilized in propylene glycol. Propylene glycol (PG) was added to the ethanol solutions of the test compounds, the ethanol was evaporated under reduced pressure at 37° C., and the resulting solutions in propylene glycol were added to the culture media.

[2] = system: human colon carcinoma cells; conditions: in vitro; read-out: inhibitory concentration (IC50) against proliferation; cited from earlier work
Caenorhabtidis elegans = conditions: exposure to diallyl trisulfide; cited from earlier work
[3] = system: Normal control cell lines; conditions: versus human leukemia and myeloma cell lines; cited from earlier work
[4] = system: human pancreatic adenocarcinoma cells; conditions: in vitro, cited from earlier work; for growth of cells: without cellular degeneration
[5] = Toxicity in animal tests or human trials; format: in vivo; conditions: 7.5 mg/70 kg/day to 300 mg/70 kg/day
normal fibroblasts = conditions: in vitro; cited from earlier work

Compound	cell growth (10^5) [1]	cell growth (% of control) [1]	inhibition of growth of cultured human adenocarcinoma cells [1]	IC50 [2]	increase of lifespan (Caenorhabtidis elegans)	increase in concentration required to produce apoptosis and growth inhibition in normal control cell lines [3]	growth of cells [4]	lactate production [4]	toxicity (weight loss, nausea, impairment of liver function, headache, skin lesions) [5]	growth and lactate production (normal fibroblasts)
C=CCSSSCC=C [DATS, diallyl trisulfide, reference compound]	2.7 ± 0.57 10^5	36 % of control	significantly inhibit growth	5 µM	approximately 12%	–	–	–	–	–
Cc1cc2c(o1)C(=O)c1ccccc1C2=O [FHQ3, 2-methyl-naphtho[2,3-b]furan-4,9 dione]	–	–	–	–	–	10 fold	–	–	–	–
O=C(O)Cc1cc2c(o1)C(=O)c1ccccc1C2=O [NBS, 2-carboxymethyl-naphtho[2,3-b]furan-4,9-dione, reference compound]	2.3 ± 0.52 10^5	28 % of control	significantly inhibit growth	–	–	–	–	–	–	–
CC1=C(/C=C/C(C)=C/C=C/C(C)=C/C(=O)NC2CCSC2=O)C(C)(C)CCC1 (centres unmarked) [TR, N-homocysteine thiolactonyl retinamide]	1.4 ± 0.50 10^5	19 % of control	significantly inhibit growth	–	–	–	inhibited	increased	no evidence of toxicity	unaffected
CC1=C(/C=C/C(C)=C/C=C/C(C)=C/CO)C(C)(C)CCC1 [retinol, reference compound]	–	–	–	–	–	–	–	–	no evidence of toxicity	–
N-homocysteine thiolactonyl retinamido cobalamin [TR2Co]	2.5 ± 0.82 10^5	33 % of control	significantly inhibit growth	–	–	–	inhibited	increased	–	unaffected
